The values below come from US10670605B2, “Cysteine reactive probes and uses thereof” (The Scripps Research Institute, priority 2015, dated 2020).

Holding throughout (test): Competitive isoTOP-ABPP in situ (fragment-treated cells)
What all share (assay type): cell-based

The target in experiment [1] is cysteines in MDA-MB-231 and Ramos cells (Homo sapiens, UniProt O60610).
The target in experiment [2] is cysteines in MDA-MB-231 and Ramos cells (Homo sapiens, UniProt P62888).
Experiment [3] has as its target cysteines in MDA-MB-231 and Ramos cells (Homo sapiens, UniProt Q9BXW7).
Experiment [4] addresses T1, cysteines in MDA-MB-231 and Ramos cells (Homo sapiens, UniProt Q9NQR4).
T1 sequence (Q9NQR4 1-276): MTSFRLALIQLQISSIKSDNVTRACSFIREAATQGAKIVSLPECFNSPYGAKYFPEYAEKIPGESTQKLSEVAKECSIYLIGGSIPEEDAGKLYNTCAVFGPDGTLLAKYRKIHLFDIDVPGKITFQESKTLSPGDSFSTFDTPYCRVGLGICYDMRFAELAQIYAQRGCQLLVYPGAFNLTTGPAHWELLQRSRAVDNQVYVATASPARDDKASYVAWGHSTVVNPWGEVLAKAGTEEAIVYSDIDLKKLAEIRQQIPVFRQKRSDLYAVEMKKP

Experiment [5] addresses T2, cysteines in MDA-MB-231 and Ramos cells (Homo sapiens, UniProt P49588).
T2 sequence (P49588 1-968): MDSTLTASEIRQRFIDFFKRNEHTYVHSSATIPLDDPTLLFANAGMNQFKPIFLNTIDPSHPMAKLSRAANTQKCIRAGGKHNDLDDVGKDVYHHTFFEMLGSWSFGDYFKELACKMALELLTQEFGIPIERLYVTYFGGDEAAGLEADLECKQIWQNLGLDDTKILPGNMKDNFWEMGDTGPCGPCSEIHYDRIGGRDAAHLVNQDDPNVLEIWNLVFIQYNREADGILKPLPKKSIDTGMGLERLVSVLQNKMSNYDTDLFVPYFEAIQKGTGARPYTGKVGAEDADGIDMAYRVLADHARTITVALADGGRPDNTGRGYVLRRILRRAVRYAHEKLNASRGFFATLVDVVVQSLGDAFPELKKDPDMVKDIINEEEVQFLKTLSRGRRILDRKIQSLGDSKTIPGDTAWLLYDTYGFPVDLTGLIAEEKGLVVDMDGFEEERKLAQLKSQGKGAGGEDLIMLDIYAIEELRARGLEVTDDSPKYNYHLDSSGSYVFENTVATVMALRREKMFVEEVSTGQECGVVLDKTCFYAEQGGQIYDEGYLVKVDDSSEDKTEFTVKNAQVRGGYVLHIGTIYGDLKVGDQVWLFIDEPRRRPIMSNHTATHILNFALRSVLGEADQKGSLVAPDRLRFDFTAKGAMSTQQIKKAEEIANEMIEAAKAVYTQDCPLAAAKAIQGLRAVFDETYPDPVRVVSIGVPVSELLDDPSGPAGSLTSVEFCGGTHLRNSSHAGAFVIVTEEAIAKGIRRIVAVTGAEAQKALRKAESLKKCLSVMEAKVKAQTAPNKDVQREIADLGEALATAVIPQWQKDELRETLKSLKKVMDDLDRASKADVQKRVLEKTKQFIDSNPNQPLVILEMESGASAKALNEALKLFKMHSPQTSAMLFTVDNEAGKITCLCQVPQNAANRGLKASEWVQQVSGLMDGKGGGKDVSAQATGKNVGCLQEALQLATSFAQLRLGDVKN

For experiment [6], the target named is T3, cysteines in MDA-MB-231 and Ramos cells (Homo sapiens, UniProt Q29RF7).
T3 sequence (Q29RF7 1-1337): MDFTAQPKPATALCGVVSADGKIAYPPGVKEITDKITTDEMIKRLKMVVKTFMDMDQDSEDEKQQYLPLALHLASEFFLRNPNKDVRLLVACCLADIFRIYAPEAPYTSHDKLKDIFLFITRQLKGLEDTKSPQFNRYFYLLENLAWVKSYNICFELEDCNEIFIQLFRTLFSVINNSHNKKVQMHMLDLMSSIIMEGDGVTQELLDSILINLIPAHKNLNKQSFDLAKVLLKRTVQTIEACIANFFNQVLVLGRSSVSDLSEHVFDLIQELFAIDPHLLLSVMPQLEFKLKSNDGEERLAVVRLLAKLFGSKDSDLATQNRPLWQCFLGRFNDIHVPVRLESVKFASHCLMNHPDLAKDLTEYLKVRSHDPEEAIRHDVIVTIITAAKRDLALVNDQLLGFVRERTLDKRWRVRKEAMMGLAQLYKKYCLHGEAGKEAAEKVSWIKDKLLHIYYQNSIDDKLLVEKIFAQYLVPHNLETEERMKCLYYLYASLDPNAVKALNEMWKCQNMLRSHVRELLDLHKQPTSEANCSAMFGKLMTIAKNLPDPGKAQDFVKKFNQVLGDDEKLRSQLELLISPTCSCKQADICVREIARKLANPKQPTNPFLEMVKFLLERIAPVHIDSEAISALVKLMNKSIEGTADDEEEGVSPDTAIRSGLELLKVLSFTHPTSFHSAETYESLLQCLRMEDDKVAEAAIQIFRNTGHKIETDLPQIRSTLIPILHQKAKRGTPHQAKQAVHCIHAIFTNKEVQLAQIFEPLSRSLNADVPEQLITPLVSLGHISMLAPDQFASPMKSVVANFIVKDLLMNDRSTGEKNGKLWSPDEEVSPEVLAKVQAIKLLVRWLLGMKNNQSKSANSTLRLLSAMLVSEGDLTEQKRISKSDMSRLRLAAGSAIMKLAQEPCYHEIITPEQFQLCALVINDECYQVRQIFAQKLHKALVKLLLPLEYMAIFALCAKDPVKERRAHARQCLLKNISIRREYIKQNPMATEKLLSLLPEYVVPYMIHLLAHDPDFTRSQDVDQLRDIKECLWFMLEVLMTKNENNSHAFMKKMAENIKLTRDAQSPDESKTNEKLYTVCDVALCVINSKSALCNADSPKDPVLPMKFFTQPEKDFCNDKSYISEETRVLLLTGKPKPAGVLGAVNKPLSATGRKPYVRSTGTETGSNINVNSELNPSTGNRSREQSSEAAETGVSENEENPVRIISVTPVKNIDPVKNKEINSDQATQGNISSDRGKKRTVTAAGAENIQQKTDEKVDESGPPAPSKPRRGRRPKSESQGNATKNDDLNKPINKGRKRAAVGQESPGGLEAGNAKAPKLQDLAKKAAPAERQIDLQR

Chain of cysteines in MDA-MB-231 and Ramos cells (Homo sapiens, UniProt O60610) (O60610 whole entry): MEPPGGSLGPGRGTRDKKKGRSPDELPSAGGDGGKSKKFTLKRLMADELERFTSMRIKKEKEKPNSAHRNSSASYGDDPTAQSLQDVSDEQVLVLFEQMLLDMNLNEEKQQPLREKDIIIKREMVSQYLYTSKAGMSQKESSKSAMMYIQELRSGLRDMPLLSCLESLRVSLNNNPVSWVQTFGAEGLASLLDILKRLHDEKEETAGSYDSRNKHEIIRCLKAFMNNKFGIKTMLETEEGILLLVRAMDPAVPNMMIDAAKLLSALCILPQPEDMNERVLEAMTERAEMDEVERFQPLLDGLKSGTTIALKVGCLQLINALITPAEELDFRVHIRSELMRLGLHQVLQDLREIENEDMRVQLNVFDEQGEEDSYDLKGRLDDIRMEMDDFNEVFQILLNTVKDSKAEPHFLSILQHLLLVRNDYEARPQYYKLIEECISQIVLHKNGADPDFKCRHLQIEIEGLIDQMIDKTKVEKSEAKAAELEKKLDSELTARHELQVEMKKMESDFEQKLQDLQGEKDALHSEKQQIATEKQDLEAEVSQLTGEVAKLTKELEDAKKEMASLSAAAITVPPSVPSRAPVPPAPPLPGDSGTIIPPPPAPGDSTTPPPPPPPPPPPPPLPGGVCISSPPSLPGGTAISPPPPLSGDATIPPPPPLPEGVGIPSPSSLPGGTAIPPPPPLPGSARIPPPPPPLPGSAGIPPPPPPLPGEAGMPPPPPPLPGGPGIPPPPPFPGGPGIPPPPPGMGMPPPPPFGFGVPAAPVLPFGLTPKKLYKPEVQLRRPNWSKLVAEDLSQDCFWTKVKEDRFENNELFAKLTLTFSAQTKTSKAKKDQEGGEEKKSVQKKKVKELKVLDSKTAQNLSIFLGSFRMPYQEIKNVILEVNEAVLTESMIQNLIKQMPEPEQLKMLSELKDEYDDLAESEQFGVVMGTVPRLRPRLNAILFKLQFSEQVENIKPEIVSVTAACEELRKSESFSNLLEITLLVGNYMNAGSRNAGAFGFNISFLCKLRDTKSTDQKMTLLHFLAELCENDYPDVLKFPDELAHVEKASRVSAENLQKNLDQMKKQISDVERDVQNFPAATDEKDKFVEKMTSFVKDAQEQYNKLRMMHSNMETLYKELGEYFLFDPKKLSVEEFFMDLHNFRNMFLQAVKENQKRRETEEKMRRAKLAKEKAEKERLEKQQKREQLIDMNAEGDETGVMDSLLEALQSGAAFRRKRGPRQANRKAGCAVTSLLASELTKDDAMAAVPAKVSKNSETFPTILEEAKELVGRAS
Chain of cysteines in MDA-MB-231 and Ramos cells (Homo sapiens, UniProt Q9BXW7) (Q9BXW7 24-423): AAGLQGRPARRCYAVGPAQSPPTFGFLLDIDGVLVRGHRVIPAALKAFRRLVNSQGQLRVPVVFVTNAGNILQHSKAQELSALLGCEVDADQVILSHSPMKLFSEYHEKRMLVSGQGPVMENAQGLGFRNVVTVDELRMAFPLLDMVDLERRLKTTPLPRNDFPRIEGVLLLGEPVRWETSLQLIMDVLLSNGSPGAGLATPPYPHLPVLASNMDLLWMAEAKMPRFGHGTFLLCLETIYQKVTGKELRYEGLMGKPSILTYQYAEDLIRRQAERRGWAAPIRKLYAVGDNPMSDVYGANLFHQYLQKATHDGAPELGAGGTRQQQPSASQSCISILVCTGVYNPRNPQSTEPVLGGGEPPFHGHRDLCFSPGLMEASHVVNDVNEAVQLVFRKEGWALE

On to `COc1ccc2c(c1)CCCN2C(=O)CCl` [compound 2], for which the “isoTOP-ABPP reactivity O60610_C1227 DIAPH1” value in experiment [1] (200 μM, insitu, 231) amounted to 2.2. The “isoTOP-ABPP reactivity P62888_C92 RPL30” value in experiment [2] (200 μM, insitu, 231) was 1.0. Further, the “isoTOP-ABPP reactivity Q9BXW7_C392 CECR5” value in experiment [3] (200 μM, insitu, 231) came out at 3.6. In addition, the “isoTOP-ABPP reactivity Q9NQR4_C153 N1T2” value in experiment [4] (200 μM, insitu, 231) stood at 13.1.

Turning to `COc1ccc(C2CC(c3cccs3)=NN2C(=O)CCl)cc1` (stereo not drawn) [compound 4], the “isoTOP-ABPP reactivity O60610_C1227 DIAPH1” value in experiment [1] (100 μM in situ 231) was determined as 1.6. Also, the “isoTOP-ABPP reactivity P49588_C773 AARS” value in experiment [5] (100 μM in situ 231) was found to be 1.3. Besides, the “isoTOP-ABPP reactivity P62888_C92 RPL30” value in experiment [2] (100 μM in situ 231) is 2.7. In addition, in experiment [6] (100 μM in situ 231), the “isoTOP-ABPP reactivity Q29RF7_C242 PDS5A” value is 3.0 and the “isoTOP-ABPP reactivity Q29RF7_C532 PDS5A” value turned out to be 20.0. The “isoTOP-ABPP reactivity Q9BXW7_C392 CECR5” value in experiment [3] (100 μM in situ 231) is 2.2. In addition, the “isoTOP-ABPP reactivity Q9NQR4_C153 N1T2” value in experiment [4] (100 μM in situ 231) is given as 0.7.

`COc1cc2c(cc1OC)CN(C(=O)CCl)CC2` [compound 8]: the “isoTOP-ABPP reactivity P49588_C773 AARS” value in experiment [5] (200 μM, insitu, 231) was found to be 1.5. In addition, in experiment [2] (200 μM, insitu, 231), the “isoTOP-ABPP reactivity P62888_C92 RPL30” value is reported as 1.5. The “isoTOP-ABPP reactivity Q29RF7_C242 PDS5A” value in experiment [6] (200 μM, insitu, 231) amounted to 1.0. Also, the “isoTOP-ABPP reactivity Q9BXW7_C392 CECR5” value in experiment [3] (200 μM, insitu, 231) amounted to 3.2. Besides, in experiment [4] (200 μM, insitu, 231), the “isoTOP-ABPP reactivity Q9NQR4_C153 N1T2” value amounted to 20.0.

On to `O=C(CCl)N1CCC(Cc2ccccc2)CC1` [compound 9], for which the “isoTOP-ABPP reactivity O60610_C1227 DIAPH1” value in experiment [1] (200 μM, insitu, 231) is given as 1.5. Besides, the “isoTOP-ABPP reactivity P49588_C773 AARS” value in experiment [5] (200 μM, insitu, 231) is 1.5. Moreover, the “isoTOP-ABPP reactivity P62888_C92 RPL30” value in experiment [2] (200 μM, insitu, 231) is reported as 1.3. For the same compound, the “isoTOP-ABPP reactivity Q9BXW7_C392 CECR5” value in experiment [3] (200 μM, insitu, 231) is 1.5. Moreover, in experiment [4] (200 μM, insitu, 231), the “isoTOP-ABPP reactivity Q9NQR4_C153 N1T2” value is reported as 20.0.

Regarding `O=C(CCl)N1CCN(S(=O)(=O)c2ccccc2F)CC1` [compound 10], the “isoTOP-ABPP ratio O60610_C1227” value is recorded as 1.5 in experiment [1] (200 μM, insitu, 231) and 1.4 in experiment [1] (200 μM, insitu, ramos). The “isoTOP-ABPP ratio P49588_C773” value in experiment [5] (200 μM, insitu, 231) came out at 2.1; in experiment [5] (200 μM, insitu, ramos), 1.7. The “isoTOP-ABPP ratio P62888_C92” value in experiment [2] (200 μM, insitu, 231) came to 1.3; in experiment [2] (200 μM, insitu, ramos), 4.5. Moreover, the “isoTOP-ABPP ratio, cysteine Q29RF7_C532” value in experiment [6] (200 μM, insitu, 231) was 20.0. Besides, the “isoTOP-ABPP ratio Q9BXW7_C392” value in experiment [3] (200 μM, insitu, 231) worked out at 20.0. Besides, the “isoTOP-ABPP ratio Q9NQR4_C153” value in experiment [4] (200 μM, insitu, 231) amounted to 20.0.

Turning to `Cn1cc(S(=O)(=O)N2CCOCC2)cc1C(=O)NC(=O)CCl` [compound 11], in experiment [1] (100 μM in situ 231), the “isoTOP-ABPP ratio O60610_C1227” value stood at 0.9. The “isoTOP-ABPP ratio P49588_C773” value in experiment [5] (100 μM in situ 231) was 0.9. For the same compound, the “isoTOP-ABPP ratio P62888_C92” value in experiment [2] (100 μM in situ 231) amounted to 0.8. Besides, the “isoTOP-ABPP ratio, cysteine Q29RF7_C242” value in experiment [6] (100 μM in situ 231) is given as 0.9. Moreover, the “isoTOP-ABPP ratio Q9BXW7_C392” value in experiment [3] (100 μM in situ 231) amounted to 1.1. The “isoTOP-ABPP ratio Q9NQR4_C153” value in experiment [4] (100 μM in situ 231) is 3.7.

Consider `O=C(CCl)NC(=O)NC12CC3CC(CC(C3)C1)C2` [compound 12], for which the “isoTOP-ABPP ratio O60610_C1227” value in experiment [1] (200 μM, insitu, 231) turned out to be 0.8. Also, the “isoTOP-ABPP ratio P49588_C773” value in experiment [5] (200 μM, insitu, 231) stood at 0.9. In experiment [2] (200 μM, insitu, 231), the “isoTOP-ABPP ratio P62888_C92” value is 1.1. Also, the “isoTOP-ABPP ratio, cysteine Q29RF7_C242” value in experiment [6] (200 μM, insitu, 231) stood at 12.9. Moreover, the “isoTOP-ABPP ratio Q9BXW7_C392” value in experiment [3] (200 μM, insitu, 231) is 5.1. Further, the “isoTOP-ABPP ratio Q9NQR4_C153” value in experiment [4] (200 μM, insitu, 231) is 0.9.
